The text below walks through data of patent US6458802B1, “Antidepressant azaheterocyclymethyl derivatives of 2,3-dihydro-1,4-dioxino [2,3-f]quinoline” (Wyeth, priority 2001, dated 2002).

Like-named read-outs stand apart in the source and are kept apart here.

In test [1] the target is T1, cloned human 5HT1A receptors (Homo sapiens, UniProt P08908).
T1 construct: expressed in transfected cells
T1 sequence (P08908 1-422): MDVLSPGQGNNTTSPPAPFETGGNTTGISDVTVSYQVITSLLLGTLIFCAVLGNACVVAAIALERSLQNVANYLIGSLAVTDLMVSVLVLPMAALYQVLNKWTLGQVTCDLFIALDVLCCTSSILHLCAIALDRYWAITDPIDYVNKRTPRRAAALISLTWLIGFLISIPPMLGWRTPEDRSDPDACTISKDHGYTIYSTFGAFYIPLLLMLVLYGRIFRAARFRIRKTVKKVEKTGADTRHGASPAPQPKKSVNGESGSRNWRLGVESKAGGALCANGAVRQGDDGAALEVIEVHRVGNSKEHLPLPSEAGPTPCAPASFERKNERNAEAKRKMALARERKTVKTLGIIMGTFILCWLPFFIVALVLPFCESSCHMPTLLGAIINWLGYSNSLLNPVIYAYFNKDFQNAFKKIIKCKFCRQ
As to the kind of experiment: 35S-GTPγS binding assay, antagonist activity at 5HT1A receptors. In kind it is biochemical. Particulars: for 5HT1A Function (Imax) / Emax: maximum inhibitory effect in 35S-GTPγS binding versus 8-OH-DPAT; for IC50: 35S-GTPγS binding, reversal of the effects of the standard agonist 8-OH-DPAT, membranes with cloned human 5HT1A receptors, read-out: 5HT1A Function IC50; for Emax: read-out: 5HT1A Function (Imax). Here is the method: Antagonist activity at 5HT1A receptors was established by using a ^35S-GTPγS binding assay similar to that used by Lazareno and Birdsall (Br. J. Pharmacol. 109: 1120, 1993), in which the test compound's ability to affect the binding of 35S-GTPγS to membranes containing cloned human 5HT1A receptors was determined. Agonists produce an increase in binding whereas antagonists produce no increase but rather reverse the effects of the standard agonist 8-OH-DPAT. The test compound's maximum inhibitory effect is represented as the 1max, while its potency is defined by the IC50.

For the next test, the target named is T2, serotonin transporter (Rattus norvegicus, UniProt P31652).
T2 construct: displace ^3H-paroxetine from male rat frontal cortical membranes; from tissue; host or cells: male rat frontal cortex membranes
As to the kind of experiment: 3H-paroxetine displacement, affinity for the serotonin transporter. In kind it is binding.

For a further test, the target named is T3, human 5HT1A receptors (Homo sapiens, UniProt P08908).
T3 construct: expressed in transfected cells; host or cells: CHO cells
T3 sequence (P08908 1-422): T1 sequence (P08908 1-422)
As to the kind of experiment: [3H] 8-OH-DPAT displacement from the 5HT1A serotonin receptor (transfected CHO cells). In kind it is binding. The source says: High affinity for the serotonin 5HT1A receptor was established by testing the claimed compound's ability to displace [^3H] 8-OH-DPAT (dipropylamino-tetralin) from the 5HT1A serotonin receptor following a modification of the procedure of Hall et al., J. Neurochem. 44, 1685 (1985) which utilizes CHO cells stably transfected with human 5HT1A receptors.

Where [2] appears, read: displacement of [3H] 8-OH-DPAT, CHO cells stably transfected with human 5HT1A receptors, read-out: 5HT1A Receptor Affinity KI.

T2 sequence (P31652 whole entry): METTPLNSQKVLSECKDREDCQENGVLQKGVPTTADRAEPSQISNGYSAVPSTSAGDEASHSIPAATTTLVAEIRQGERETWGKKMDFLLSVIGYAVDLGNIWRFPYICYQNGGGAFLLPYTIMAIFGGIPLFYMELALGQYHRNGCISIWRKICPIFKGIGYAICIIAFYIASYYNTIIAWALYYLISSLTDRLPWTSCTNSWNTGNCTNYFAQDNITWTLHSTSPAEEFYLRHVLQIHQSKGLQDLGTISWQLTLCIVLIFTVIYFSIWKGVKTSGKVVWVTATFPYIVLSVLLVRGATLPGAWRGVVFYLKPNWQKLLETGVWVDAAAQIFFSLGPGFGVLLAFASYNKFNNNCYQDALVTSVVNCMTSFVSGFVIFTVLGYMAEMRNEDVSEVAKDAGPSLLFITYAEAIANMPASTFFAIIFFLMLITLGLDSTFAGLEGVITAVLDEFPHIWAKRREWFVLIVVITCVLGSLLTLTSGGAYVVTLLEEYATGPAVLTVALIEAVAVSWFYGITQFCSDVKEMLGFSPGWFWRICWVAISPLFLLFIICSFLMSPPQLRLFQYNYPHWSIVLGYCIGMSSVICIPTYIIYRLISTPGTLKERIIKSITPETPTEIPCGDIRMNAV

Take “2-({4-[(6-Chloro-1H-indol-3-yl)methyl]piperidin-1-yl}methyl)-8-methyl-2,3-dihydro[1,4]dioxino[2,3-f]quinoline [Example 20]”: in test [1], the “5HT1A Function (Imax)” value is reported as “(100)”.
In the case of “2-({4-[(7-Ethyl-1H-indol-3-yl)methyl]piperidin-1-yl}methyl)-8-methyl-2,3-dihydro[1,4]dioxino[2,3-f]quinoline [Example 19]”, the “5HT1A Function (Imax)” value in test [1] was “(100)”.
By IC50 is commonly meant the point on the concentration scale where inhibition reaches its midpoint. For orientation: Ki means the dissociation constant of the complex between target and ligand, obtained from inhibition or displacement. `COc1ccc2[nH]cc(C3=CCN(C[C@H]4COc5ccc6ncccc6c5O4)CC3)c2c1` [Example 1]: the IC50 in test [1] came to 322 nM. Further, the Emax in test [1] was found to be 100%. The inhibitory constant (Ki) at serotonin transporter is 54 nM; at human 5HT1A receptors it was 9.29 nM.
As for `Fc1ccc2[nH]cc(C3=CCN(C[C@H]4COc5ccc6ncccc6c5O4)CC3)c2c1` [Example 2], in test [1], the concentration for half-maximal inhibition (IC50) is 243 nM and the Emax was 100%. On serotonin transporter, the affinity, expressed as Ki, was 2.82 nM. The same molecule gave an inhibitory constant (Ki) at human 5HT1A receptors of 9.88 nM.
For `Fc1ccc2[nH]cc(CC3CCN(C[C@H]4COc5ccc6ncccc6c5O4)CC3)c2c1` [Example 3], in test [1], the IC50 was determined as 120 nM and the Emax stood at 90%. Also, the inhibition constant Ki on serotonin transporter (displacement of 3H-paroxetine from male rat frontal cortical membranes, read-out: 5-HT Transporter Affinity KI) was found to be 1.2 nM. At human 5HT1A receptors (setting [2]), the inhibition constant Ki amounted to 17.2 nM.
For `C1=C(c2c[nH]c3ccccc23)CCN(C[C@H]2COc3ccc4ncccc4c3O2)C1` [Example 4, 2-[1,4-(1H-indol-3-yl)-3,6-dihydro-2H-pyridin-1-ylmethyl]-2,3-dihydro[1,4]dioxino[2,3-f]quinoline], the half-maximal inhibitory concentration (IC50) in test [1] amounted to 226 nM. Also, the Emax in test [1] amounted to 87%. The inhibition constant Ki on serotonin transporter came to 3.38 nM; at human 5HT1A receptors, 4.84 nM.
For the molecule `N#Cc1ccc2[nH]cc(C3=CCN(CC4COc5ccc6ncccc6c5O4)CC3)c2c1` (centres unmarked) [Example 5, 3-[1-(2,3-Dihydro[1,4]dioxino[2,3-f]quinolin-2-ylmethyl)-1,2,3,6-tetrahydropyridin-4-yl]-1H-indole-5-carbonitrile], the Ki at serotonin transporter was determined as 2.54 nM; at human 5HT1A receptors (setting [2]) it was 19.3 nM.
Regarding `NC(=O)c1ccc2[nH]cc(C3=CCN(C[C@H]4COc5ccc6ncccc6c5O4)CC3)c2c1` [Example 6, 3-[1-(2,3-Dihydro[1,4]dioxino[2,3-f]qiuinolin-2-ylmethyl)-1,2,3,6-tetrahydropyridin-4-yl]-1H-indole-5-carboxylic Acid Amide], the Ki at serotonin transporter came out at 3.54 nM; at human 5HT1A receptors (setting [2]), 9.44 nM.
For `Cn1cc(C2=CCN(C[C@H]3COc4ccc5ncccc5c4O3)CC2)c2cc(F)ccc21` [Example 7, 2-[4-(5-Fluoro-1-methyl-1H-indol-3-yl)-3,6-dihydro-2H-pyridin-1-ylmethyl]-2,3-dihydro[1,4]dioxino[2,3-f]qiuinoline], in test [1], the concentration for half-maximal inhibition (IC50) was determined as 1080 nM and the Emax stood at 100%. In addition, the inhibition constant (Ki) at serotonin transporter was 8.5 nM. At human 5HT1A receptors, the inhibitory constant (Ki) was determined as 14.7 nM.
As to `Cc1ccc2c3c(ccc2n1)OCC(CN1CC=C(c2c[nH]c4cc(F)ccc24)CC1)O3` (centres unmarked) [Example 10, 2-[4-(6-Fluoro-1H-indol-3-yl)-3,6-dihydro-2H-pyridin-1-ylmethyl]-8-methyl-2,3-dihydro[1,4]dioxino[2,3-f]quinoline], in test [1], the IC50 is 259 nM. Further, the Emax in test [1] was determined as 100%. Moreover, the Ki was 8 nM on serotonin transporter and 6.7 nM at human 5HT1A receptors.
`Cc1ccc2c3c(ccc2n1)OCC(CN1CC=C(c2c[nH]c4ccc(F)cc24)CC1)O3` (centres unmarked) [Example 11, 2-[4-(5-Fluoro-1H-indol-3-yl)-3,6-dihydro-2H-pyridin-1-ylmethyl]-8-methyl-2,3-dihydro[1,4]dioxino[2,3-f]quinoline]: in test [1], the half-maximal inhibitory concentration (IC50) came to 120 nM and the Emax worked out at 100%. The Ki on serotonin transporter is 5.51 nM. The molecule also returned an inhibitory constant (Ki) at human 5HT1A receptors of 13.2 nM.
As to `Cc1ccc2c3c(ccc2n1)OCC(CN1CCC(c2c[nH]c4ccccc24)CC1)O3` (centres unmarked) [Example 12, 2-[4-(1H-indol-3-yl)piperidin-1-ylmethyl]-8-methyl-2,3-dihydro[1,4]dioxino[2,3-f]quinoline], in test [1], the half-inhibitory concentration (IC50) turned out to be 85.7 nM and the Emax came to 100%. Moreover, the affinity on serotonin transporter, expressed as Ki, was 2.39 nM. The inhibitory constant (Ki) on human 5HT1A receptors is 9.98 nM.
